The values below come from PMC3731256, “Optimization of Substituted 6-Salicyl-4-Anilinoquinazoline Derivatives as Dual EGFR/HER2 Tyrosine Kinase Inhibitors” (PLoS ONE, 2013).

In one data set the target is T1, human EGFR (Homo sapiens, UniProt P00533).
T1 construct: the cytoplasmic domain (amino acids 669-1210) of human EGFR; FLAG (DYKDDDD) (N); made in house
Put plainly: EGFR kinase assay ([γ-32P] ATP, poly-Glu-Tyr). It counts as biochemical. As to the method:
The expressed HER2 kinase and EGFR kinase were purified by anti-FLAG M2 affinity gel (Sigma-Aldrich, USA). The HER2 and EGFR kinase assays were performed using radiolabeled [γ-^32P] ATP (GEHealthcare, USA) in 96-well plates. The kinase reactions were performed in 50 mmol/L Tris-HCl, pH7.5, 5 mmol/L MnCl2, 0.01% Tween-20 and 2 mmol/L DTT containing 0.9 μCi of [γ-^32P] ATP per reaction, 50 μmol/L ATP, 5 μg/mL poly-Glu-Tyr (4:1) and 0.25 μg/mL of purified Her2 or EGFR cytoplasmic domain in a total volume of 50 μL. […] Kinase reactions were initiated by adding ATP. After the kinase reaction incubated for 10 minutes at room temperature, reactions were terminated by the addition of 10% (final concentration) trichloroacetic acid. The [γ-^32P]-phosphorylated proteins were filtered in a harvest plate (Millipore, USA) with a cell harvester (PerkinElmer, USA) and washed free of [γ-^32P] ATP with 3% phosphoric acid. The plates were dried, followed by the addition of 25 μL of MicroScintO (PerkinElmer, USA). Radioactivity was counted by a Topcount scintillation counter (PerkinElmer, USA).

For another data set, the system named is MCF-7 cells. Put plainly: Antiproliferation WST-1 assay, MCF-7. It counts as cell-based, human. To be noted: Homo sapiens, MCF7, WST-1 assay; MCF-7 breast cancer, Her2/neu overexpression; read-out: Cellular IC50, MCF-7. As to the method: (§1) WST-1 is better than MTT for analyzing cell proliferation, because it can be reduced to soluble formazan by dehydrogenase in mitochondria and has little toxicity to cells. Cell proliferation was determined using WST-1 dye (Beyotime Inst Biotech, China) according to manufacture’s instructions. Brieﬂy, 5 × 10^3 cells per well were seeded in a 96-well plate, grown at 37 ℃ for 24 h, and then placed in serum-starved conditions for a further 6 h. Subsequently, cells were treated with compounds (Table 1) at increasing concentrations in the presence of 10% FBS for 24 or 48h. After 10 µL WST-1 dye was added to each well, cells were incubated at 37 ℃ for 2 h and the absorbance was ﬁnally determined at 450 nm using a microplate reader.
On the technique in general: Tetrazolium dyes change colour on reduction, which living cells bring about.

A further data set deals with H1781 cells. Put plainly: Antiproliferation WST-1 assay, H1781. Type of data set: cell-based. The conditions noted are these: NCI-H1781, NSCLC, HER-2 G776ins V_G/C, lapatinib-resistant. As to the method:
as §1

Another data set deals with T2, VEGFR2 (Homo sapiens, UniProt P35968).
T2 construct: The cytoplasmic domain of vascular endothelial growth factor receptor 2 (VEGFR2); purchased Millipore Corp
T2 sequence (P35968 786-1356 limits assumed, species assumed): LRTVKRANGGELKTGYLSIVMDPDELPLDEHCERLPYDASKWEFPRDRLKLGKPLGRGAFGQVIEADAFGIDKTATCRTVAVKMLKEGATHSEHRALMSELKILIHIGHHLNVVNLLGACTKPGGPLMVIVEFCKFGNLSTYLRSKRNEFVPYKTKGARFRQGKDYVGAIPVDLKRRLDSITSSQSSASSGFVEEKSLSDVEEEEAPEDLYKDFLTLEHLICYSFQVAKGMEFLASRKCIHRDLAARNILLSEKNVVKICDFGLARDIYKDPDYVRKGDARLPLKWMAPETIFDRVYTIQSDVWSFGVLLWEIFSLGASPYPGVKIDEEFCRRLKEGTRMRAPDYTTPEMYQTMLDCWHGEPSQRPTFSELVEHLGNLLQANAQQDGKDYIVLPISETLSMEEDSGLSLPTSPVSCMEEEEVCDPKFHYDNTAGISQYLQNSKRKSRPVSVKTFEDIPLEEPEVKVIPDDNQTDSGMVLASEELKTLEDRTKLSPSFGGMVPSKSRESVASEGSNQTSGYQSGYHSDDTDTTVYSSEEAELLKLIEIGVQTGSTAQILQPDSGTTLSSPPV
The experiment in a line: Tyrosine kinase profiling (Alphascreen), VEGFR2. Type of data set: biochemical. The conditions noted are these: ATP concentration = Km. As to the method:
(§2) The cytoplasmic domain of vascular endothelial growth factor receptor 2 (VEGFR2), platelet-derived growth factor receptor α (PDGFRα), cSRC were purchased from Millipore Corp. Assays for 3 tyrosine kinases were performed in 384 well plates using the Alphascreen® system (PerkinElmer) at room temperature. Enzyme reactions were performed in 50 mM Tris–HCl, pH7.5, 5 mM MnCl2, 5 mM MgCl2, 0.01% Tween-20, 2 mM dithiothreitol and 0.1 μg/ml biotinylated poly-GluTyr (4:1) containing optimized concentration of enzyme and ATP as described below.
(§3) Prior to the kinase reaction, compound and enzyme were incubated for 5 min at room temperature. The reactions were initiated by adding ATP. After the reaction period as described below at room temperature, the reactions were stopped by the addition of 25 μl of 100 mM EDTA, 10 μg/ml Alphascreen streptavidin donor beads and 10 μg/ml acceptor beads described below in 62.5 mM HEPES, pH 7.4, 250 mM NaCl, and 0.1% BSA. Plates were incubated in the dark for more than 12 h and then read by EnVision 2102 Multilabel Reader (PerkinElmer). The well containing substrate and enzyme without compound was used as total reaction control. […]

The target of a further data set is T3, PDGFRα (Homo sapiens, UniProt P16234).
T3 construct: The cytoplasmic domain of vascular endothelial growth factor receptor 2 (VEGFR2), platelet-derived growth factor receptor α (PDGFRα); purchased Millipore Corp
T3 sequence (P16234 550-1089 limits assumed, species assumed): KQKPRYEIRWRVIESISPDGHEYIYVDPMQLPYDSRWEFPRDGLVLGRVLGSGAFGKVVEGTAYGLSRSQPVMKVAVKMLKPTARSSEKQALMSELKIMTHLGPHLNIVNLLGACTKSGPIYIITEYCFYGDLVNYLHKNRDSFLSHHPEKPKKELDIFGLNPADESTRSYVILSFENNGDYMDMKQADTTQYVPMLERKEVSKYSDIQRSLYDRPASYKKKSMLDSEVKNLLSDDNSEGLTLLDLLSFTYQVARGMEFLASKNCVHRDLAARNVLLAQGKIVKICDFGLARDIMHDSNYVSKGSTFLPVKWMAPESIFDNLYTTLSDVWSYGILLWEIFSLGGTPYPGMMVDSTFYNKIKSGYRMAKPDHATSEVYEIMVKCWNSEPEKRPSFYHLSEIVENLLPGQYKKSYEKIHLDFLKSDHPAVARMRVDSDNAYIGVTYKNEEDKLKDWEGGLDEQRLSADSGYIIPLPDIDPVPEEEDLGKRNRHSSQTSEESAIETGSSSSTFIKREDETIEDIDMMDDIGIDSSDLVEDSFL
Put plainly: Tyrosine kinase profiling (Alphascreen), PDGFRα. Type of data set: biochemical. To be noted: ATP concentration = Km. As to the method: as §2, §3
In general terms: Alpha assays give light when donor and acceptor beads are brought close together.

Another data set concerns the target T4, p38α (Homo sapiens, UniProt Q16539).
T4 construct: FLAG (N); made in house; host or cells: baculovirus expression system
The experiment in a line: Serine/threonine kinase profiling ([γ-32P] ATP), p38α. It counts as biochemical. As to the method: Assays for 4 serine/threonine kinases using radio labeled [γ-^32P] ATP (GE Healthcare, Piscataway, NJ) were performed in 96 well plates. Mitogen-activated protein kinase p38α (p38α), was expressed as N-terminal FLAG-tagged protein using a baculovirus expression system. Aurora-A and -B were expressed as N-terminal 6xHis tagged protein using a baculovirus expression system. CDK2/CycA was expressed as C-terminal 6His-tagged CDK2, and N-terminal GST-tagged Cyclin A protein using a baculovirus expression system.
The reaction conditions were optimized for each kinase: p38α (100 ng/well of enzyme, 1 μg/well of MBP (Wako Pure Chemical Ind., Osaka, Japan), 0.1 μCi/well of [γ-^32P] ATP, 60 min reaction at 30 ℃); Aurora-A and -B (50 ng/well of enzyme, 30 μM of Aurora substrate peptide, 0.2 μCi/well of [γ-^32P] ATP, 60 min reaction at room temperature); CDK2/CycA (1.8 mUnits/well of enzyme, 1 μg/well of Histone H1 (Calbiochem), 0.2 μCi/well of [γ-^32P] ATP, 20 min reaction at room temperature).
All the four enzyme reactions were performed in 25 mM HEPES, pH 7.5, 10 mM magnesium acetate, 1 mM dithiothreitol and 0.5 μM ATP containing optimized concentration of enzyme, substrate and radiolabeled ATP as described above in a total volume of 50 μl. […] The radioactivity was counted by a TopCount scintillation counter (PerkinElmer).

Where [1] appears, read: converted from IC50 by online calculator.

T4 sequence (Q16539 whole entry): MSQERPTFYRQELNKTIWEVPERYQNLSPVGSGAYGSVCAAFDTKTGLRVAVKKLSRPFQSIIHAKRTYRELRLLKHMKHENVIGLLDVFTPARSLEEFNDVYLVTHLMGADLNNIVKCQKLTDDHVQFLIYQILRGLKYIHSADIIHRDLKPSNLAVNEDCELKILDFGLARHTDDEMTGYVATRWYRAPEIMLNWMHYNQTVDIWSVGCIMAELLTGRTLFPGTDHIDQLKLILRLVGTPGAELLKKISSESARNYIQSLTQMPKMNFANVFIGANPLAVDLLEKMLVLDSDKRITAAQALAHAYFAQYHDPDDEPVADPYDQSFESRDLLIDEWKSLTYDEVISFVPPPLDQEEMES
T1 sequence (P00533 669-1210): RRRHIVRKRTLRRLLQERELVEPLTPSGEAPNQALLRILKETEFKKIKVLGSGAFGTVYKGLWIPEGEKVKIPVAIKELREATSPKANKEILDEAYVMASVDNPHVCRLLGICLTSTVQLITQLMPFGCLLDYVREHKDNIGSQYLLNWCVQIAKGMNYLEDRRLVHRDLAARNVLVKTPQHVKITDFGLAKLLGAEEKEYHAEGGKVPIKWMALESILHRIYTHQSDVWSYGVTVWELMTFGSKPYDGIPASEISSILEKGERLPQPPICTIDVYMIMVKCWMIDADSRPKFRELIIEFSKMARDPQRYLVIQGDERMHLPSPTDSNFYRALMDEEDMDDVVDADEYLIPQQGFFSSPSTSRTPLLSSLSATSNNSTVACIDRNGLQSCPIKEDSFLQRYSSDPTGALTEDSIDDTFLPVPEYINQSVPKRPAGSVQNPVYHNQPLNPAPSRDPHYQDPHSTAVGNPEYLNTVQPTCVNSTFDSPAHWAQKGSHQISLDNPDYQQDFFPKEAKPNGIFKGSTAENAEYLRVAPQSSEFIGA

For the compound `O=C(Nc1ccc2ncnc(Nc3cccc(Br)c3)c2c1)c1ccc(C(F)(F)F)cc1O` [Compound 21, N-(4-(3-bromophenylamino)quinazolin-6-yl)-2-hydroxy-4-(trifluoromethyl)benzamide], the melting point is 289 to 291 °C. On human EGFR (setting [1]), the “pIC50 EGFR” value is given as 6.92. The IC50 on human EGFR (phosphorylation of poly-Glu-Tyr copolymer, mean, >1 determination, read-out: Enzyme activity IC50 against EGFR kinase) turned out to be 0.12 ± 0.012 µM. In addition, the IC50 in the data set on MCF-7 cells stood at 0.49 ± 0.018 µM. Besides, it took 0.77 ± 0.034 µM to reach half-maximal inhibition with H1781 cells (IC50). The IC50 against VEGFR2 stood at 29.2 ± 0.98 µM. This compound registered an IC50 against PDGFRα of 17.3 ± 0.06 µM. In addition, the concentration for half-maximal inhibition (IC50) against p38α (ATP concentration = Km) was 16.1 ± 0.37 µM. The “pIC50 p38α” value on p38α (setting [1]) is reported as 4.79.

In general, IC50 refers to the concentration needed to halve the response being measured. By melting point is commonly meant the temperature of the solid-liquid transition.
